In patent US9580465B2, “Tissue protective peptides and peptide analogs for preventing and treating diseases and disorders associated with tissue damage” (ARAIM PHARMACEUTICALS, INC., priority 2008, dated 2017):
Square brackets hold non-standard residues; d marks the D form. pGlu = O=C1CC[C@@H](C(=O)O)N1

Assays:
bilateral renal ischemia = experiment: Bilateral renal ischemia assay; format: in vivo, C57/BL6 mice
Procedure: Sixty male C57/BL6 mice (˜25 g; Charles River Laboratories) were anesthetized with ketamine (150 mg/kg) and xylazine (15 mg/kg) i.p. Each animal was placed on a homeothermic blanket set at 37° C., and after a mid-line laparotomy, the renal pedicles were clamped for 30 minutes using nontraumatic vascular clamps. Peptide ID was administered at the indicated dose via i.p. Injection at 1 minute, 6 hours, and 12 hours after reperfusion. In a single dose study, the mice received a control (PBS), 1 μg/kg of Peptide IG at 1 minute, 1 μg/kg of Peptide IG at 30 minutes, 1 μg/kg of Peptide ID at 6 hours, or 10 μg/kg of Peptide ID at 6 hours (12 mice per group). In a multiple dose study, the mice received either multiple doses of a control (PBS), 0.1 μg/kg of Peptide ID, 1 μg/kg of Peptide ID, or 10 μg/kg of Peptide ID at 1 minute, 6 hours and 12 hours into reperfusion.
Twenty-four hours later, mice were reanesthetized and blood was obtained by cardiac puncture. Plasma urea and creatine were used as indicators of renal dysfunction and aspartate aminotransferase was used as an indicator of renal injury. Data were analyzed using ANOVA followed by Dunnett's post hoc test comparison.

[1] = In vivo assessment of erythropoietic activity, 28 days i.v. in rats; parameters: species or system Sprague Dawley rats; settings: 0, 60, 180, 600 μg/kg per dose i.v. twice a day for 28 days; blood on day 29; FIG. 2
Procedure: To evaluate the erythropoietic activity of tissue protective peptides and peptide analogs, Peptide ID was administered intravenously twice a day to Sprague Dawley rats for 28 days. Nine male and nine female rats were assigned to groups 1-4 receiving 0, 60, 180, and 600 μg/kg per dose (0, 48, 143, and 477 nmol/kg, respectively) of Peptide ID in PBS by bolus intravenous administration from days 1-28, Blood samples to assay for hematological variables were collected on day 29. Hemoglobin concentration was determined by use of an automated analyzer (Keska Corporation).

[2] = system: partial body irradiation of 15 Gy; experiment: Radiomitigating activity in a gastrointestinal screening assay; format: in vivo, C57BL/6 mice; settings: 15 mice per group, 30 ug/kg subcutaneously from 24 hours, once a day, FIG. 22
Procedure: The ability of peptides useful in the current therapeutic method to mitigate the effects of a radioactive agent on the gastrointestinal system was evaluated in a murine model of radiation injury. Briefly, 30 C57BL/6 mice (male, 20-30 gm) were used in the study.
The radiation was administered to the mice using a Pantak HF320 X-ray (Agfa NDT Ltd., Reading, UK), operated at 300 kV, 10 mA. The X-ray tube has additional filtration to give a radiation quality of 2.3 mm Cu half-value layer (HVL). Mice had their head, thorax, and forelimbs shielded to protect their bone marrow and select for the GI response. The mice were restrained in a jig and positioned at a distance of 700 mm focus from the focus of the X-ray tube. Irradiation was delivered at a dose rate of 75.5 cGy/min (unshielded) and 70.0 cGy/min (shielded) for a period sufficient to expose the mice to 15 Gy of radiation.
At 24 hours following radiation, 15 of the mice were administered Peptide ID (30 ug/kg subcutaneously) and then once a day for the duration of the study and remaining 15 mice (control group) received PBS (subcutaneously) and then once a day for the duration of the study.
The mice were weighed and monitored once a day until signs of diarrhea and early euthanasia appeared, then twice a day.

UEQLERALNSS ([pGlu]EQLERALNSS-OH; also: acetate/ammonium mixed salt) [Peptide ID, first glutamine replaced with pyroglutamate]
creatinine, urea and aspartate aminotransferase (biochemical markers of renal dysfunction) (bilateral renal ischemia; multiple doses 1 μg/kg at 1 minute, 6 hours and 12 hours into reperfusion, FIG. 7): reduction in these biochemical markers of renal dysfunction
creatinine, urea and aspartate aminotransferase (biochemical markers of renal dysfunction) (bilateral renal ischemia; multiple doses 10 μg/kg at 1 minute, 6 hours and 12 hours into reperfusion, FIG. 7): reduction in these biochemical markers of renal dysfunction
creatinine, urea and aspartate aminotransferase (biochemical markers of renal dysfunction) (bilateral renal ischemia; single dose 1 μg/kg at 6 hours into reperfusion, 24 hrs of reperfusion, FIG. 6): reduction in these biochemical markers of renal dysfunction
creatinine, urea and aspartate aminotransferase (biochemical markers of renal dysfunction) (bilateral renal ischemia; single dose 10 μg/kg at 6 hours into reperfusion, 24 hrs of reperfusion, FIG. 6): reduction in these biochemical markers of renal dysfunction
hemoglobin concentration [1]: no difference in any of the groups
number of mice surviving to day 20 [2]: 6 mice
